For the data set, the system named is 3xTg-AD mice. In words: Multiple-doses subcutaneous administration in 3xTg-AD mice, behavior and synaptic function. The class given is in vivo, mouse. To be noted: 9.5 m-old 3xTg-AD mice, subcutaneous 3 mg/kg every 6 days, 5 times. The protocol: The Open field (OF) test was consisted of a 5 min session in a quadrate chamber (white opaque plastic). The chamber was divided into 16 square regions, a central field (center 4 square regions) and a periphery field. Each mouse was placed in the same position at the start of the test. Behaviors were recorded and analyzed by the video tracking system (Chengdu Taimeng Software Co., Ltd, China).
For novel object recognition (NOR) test, the mice were habituated to a quadrate chamber (white opaque plastic) for 5 min without objects 24 h prior to the test. The chamber was cleaned with 75% ethanol between each habituation period. The day after the mice re-entered the chamber from the same starting point and were given 10 min to familiarize themselves with the object A and object B. After each period the chamber and objects were cleaned with 75% ethanol. The next day after the familiarization period, object B was replaced with noval object C, and the mice were given 10 min to explore both objects. The exploring time in object A (TA) and C (TC) was recorded using the video tracking system. The discrimination index was calculated by (TC-TA)/(TA+TC).
The Elevated plus maze (EPM) test was performed as follows: mice were placed at the junction of the four arms of the maze (white opaque plastic), and started the test from facing an open arm. The chambers were cleaned with 75% ethanol before the next mouse was trained. The entries and duration time in each arm were recorded for 5 min by the video tracking system (Chengdu Taimeng Software Co., Ltd, China). An increase in open arm activity (duration and/or entries) reflects anti-anxiety behavior.
The Morris water maze (MWM) test was conducted to assess the spatial learning and memory. The maze was filled with water and divided into 4 quadrants with a platform placed in one quadrant. The mice were trained to find the hidden platform for 6 consecutive days, and underwent […] training trials (once per quadrant) per day from 14:00 to 20:00 pm. In each training trial, the mouse started from one of four quadrants facing the wall of the pool and the trial ended when the animal climbed on the platform. […] The spatial memory was tested 1 d after the last training by removed the platform. The longer a mouse stayed in the previous platform-located quadrant, the better it scored the spatial memory. A video camera, fixed to the ceiling 1.5 m from the water surface, was used to record the swimming path and the time for mice to find the platform (latency) or to pass through the previous platform-located quadrant each day. The camera was connected to a digital-tracking device attached to an IBM computer (Armonk, NY).
For fear conditioning (FC) test, the mice were placed into a square chamber with a grid floor. On the first day (day 1), each mouse was habituated to the chamber for 3 min, and then a foot shock (0.9 mA, 3 s) was delivered. Three sequential foot shocks at 3 min intervals were applied. Then the mice were returned to their home cages. On the next day (day 2), the mice were exposed to the same chamber without any stimulus for 3 min. The contextual conditioning was assessed by recording freezing behavior during the 3 min exposure. Freezing time during the 3 min was recorded for assessment of memory.
Mice used for electrophysiology experiments were deeply anesthetized as described above. When all pedal reflexes were abolished, brains were removed and placed in ice-cold oxygenated slicing solution containing the following: 225 mM sucrose, 3 mM KCl, 1.25 mM NaH2PO4, 24 mM NaHCO3, 6 mM MgSO4, 0.5 mM CaCl2, and 10 mM D-glucose. Coronal slices (300 μm thickness) were cut at 4-5 °C in the slicing solution using a Leica VT1000S vibratome and then transferred to an incubation chamber filled with oxygenated slicing solution in a 30 °C water bath for 1 h before being recorded. […]

Structures are written as SMILES.

As to `CC(=O)N1CCCN(c2nc(NCCc3cccs3)nc(N(C)CC(=O)NCCOCCOCCOCC(=O)N[C@H](C(=O)N3C[C@H](O)C[C@H]3C(=O)NCc3ccc(-c4scnc4C)cc3)C(C)(C)C)n2)CC1` [C004019], the “FC test, freezing index” value was “restored the freezing index”; the “NOR test, discrimination index” value is reported as “almost completely restored the memory ability”; the “motor and anxiety levels (OF and EPM tests)” value is “did not significantly affect the motor and anxiety levels”. In addition, under “6 days learning trial”, the “MWM test, latency to reach the platform” value is “shorter latency to reach the platform”. The spine density entry (Golgi-cox staining) is listed as “restored spine density”. Also, the neurite arborization entry (Sholl analysis) is “didn't have any effect on neurite arborization”. Besides, the “LTP induction (fEPSP amplitude and slope)” value (hippocampal slices) is listed as “restored”.

Values taken from article PMC8039949, “A novel small-molecule PROTAC selectively promotes tau clearance to improve cognitive functions in Alzheimer-like models” (Theranostics, 2021).
